Reference: paper PMC7561186, “Rational design of balanced dual-targeting antibiotics with limited resistance” (PLoS Biology, 2020)
Values after ≈ are worked out from the molar mass of the structure shown. Like-named read-outs stand apart in the source and are kept apart here.

Tests used:
[1] = system: human hERG potassium ion channel
Experimental: Inhibition of the human hERG cardiac K+ ion channel was determined by Eurofins Panlabs (St. Charles, MO, USA) by using QPatch automated whole-cell patch-clamp electrophysiology, as described previously. […] During measurements, after whole-cell patch configuration was achieved, the cells were held at −80 mV. Next, a 500-millisecond pulse to −40 mV was delivered to measure the leaking current, which was then subtracted from the tail current’s readout. Then the cell was depolarized to +40 mV for 500 milliseconds and then to −80 mV over a 100-millisecond ramp to elicit the hERG tail current. This workflow was repeated once in every 8 seconds to monitor the current amplitude. The parameters measured during each test were the maximum tail current evoked on stepping to 40 mV and ramping back to −80 mV from the test pulse. All data were filtered for seal quality, seal drop, and current amplitude. The peak current amplitude was calculated before and after compound addition, and the amount of inhibition was assessed by dividing the test compound’s current amplitude by the control’s current amplitude. During our tests, the control was the mean hERG current amplitude collected 15 seconds at the end of each measurement, and the test compound was the mean hERG current amplitude collected in the presence of test compound at the given concentration.

MCF-7 cells = conditions: LDH assay
Experimental: (§1) Cytotoxicity of compounds on HepG2 and MCF-7 mammalian cell lines was determined by using a standard LDH assay. Briefly, HepG2 and MCF-7 cells were cultured in Eagle’s MEM medium (from Gibco) supplemented with 2 mM L-glutamine (Sigma), 100 U/mL penicillin (Sigma), and 100 μg/mL streptomycin (Sigma), and 10% FBS (Gibco) at 37 °C and under 5% CO2. Next, LDH assays were performed according to manufacturer instructions (Thermo Fisher Scientific, Massachusetts, USA). By using a CyQUANT LDH Cytotoxicity Assay Kit. Firstly, the cells were seeded in 96-well microtiter plates at 10^5 cells/mL (100 μL/well) and allowed to attach overnight. […] Lysis buffer (10 μL, Thermo Fisher Scientific) was then added to the maximal LDH activity control wells and incubated additional 45 minutes. The cell culture supernatant (50 μL) was then transferred to a new 96-well plate and mixed with 50 μL of the reaction mixture. After 30 minutes on room temperature, reactions were stopped with 50 μL of the Stop solution. Absorbance (490 nm and 680 nm) was measured with the automatic microplate reader Synergy 4 Hybrid Microplate Reader (BioTek, VT, USA). All experiments were performed in triplicates and repeated 3 times. Statistical significance (P < 0.05) was calculated with 2-tailed Welch’s t-test between treated groups and DMSO. The percentage of cytotoxicity was determined according to the following equation: %Cytotoxicity=(CompoundtreatedLDHactivity-SpontaneousLDHactivity/MaximumLDHactivity-SpontaneousLDHactivity)*100

in vitro = conditions: human
Experimental: as §1

[2] = system: S. aureus clinical isolates; test: microbe, parasite or virus in culture; assay type: cell-based

For Cc1[nH]c(C(=O)Nc2nc3c(OCc4ccccc4)cc(C(=O)O)cc3s2)c(Cl)c1Cl [ULD2], the “inhibitory effect on human hERG ion channels” value ([1]; 150 μM, in words) was “No statistically significant inhibitory effect”, the “Significant (hERG inhibition)” value ([1]; hERG, 150 µM) was “No (Only results showing an inhibition higher than 50% are considered to represent significant effects of the tested compounds)” and the “Normalized inhibition (%)” value ([1]; hERG, 150 µM, n = 8) was 27%. For the same compound, the “Max. % inhibition at 100 µM” value (MCF-7 cells) was “Max. % inhibition at 100 µM: 8.43%”, the IC50 (in vitro) was over 100 µM and the MIC ([2]; S. aureus ATCC 29213, MSSA / VSSA, test date 2018-10-25 (three repeat lines)) was 0.5 mg/L (≈ 1.05 µM). It also gave an MIC ([2]; Staphylococcus aureus, ATCC 29213 / MSSA, S. aureus ATCC 29213, MSSA / VSSA, test date 2018-10-25 (three repeat lines), read-out: MIC) of 0.25 mg/L (≈ 0.525 µM), an MIC ([2]; Staphylococcus aureus, ATCC 29213 / MSSA, S. aureus ATCC 29213, MSSA / VSSA, test date 2018-11-07, read-out: MIC) of 0.25 mg/L (≈ 0.525 µM) and an MIC ([2]; Staphylococcus aureus, MRSA / NRS 3 / VISA, S. aureus IHMA 1308243, NRS3, MRSA / VISA, read-out: MIC) of 0.5 mg/L (≈ 1.05 µM). For the same compound, the MIC ([2]; Staphylococcus aureus, MRSA / NRS 4 / VISA, S. aureus IHMA 649380, NRS4, MRSA / VISA, read-out: MIC) was 0.25 mg/L (≈ 0.525 µM), the MIC ([2]; Staphylococcus aureus, MRSA / NRS 18 / VISA, S. aureus IHMA 649386, NRS18, MRSA / VISA, read-out: MIC) was 0.5 mg/L (≈ 1.05 µM) and the MIC ([2]; Staphylococcus aureus, MRSA / NRS 19 / VISA, S. aureus IHMA 649387, NRS19, MRSA / VISA, read-out: MIC) was 0.25 mg/L (≈ 0.525 µM). For the same compound, the MIC ([2]; Staphylococcus aureus, MRSA / NRS 21 / VISA, S. aureus IHMA 649388, NRS21, MRSA / VISA, read-out: MIC) was 0.25 mg/L (≈ 0.525 µM), the MIC ([2]; Staphylococcus aureus, MRSA / NRS 22 / USA600 / VISA, S. aureus IHMA 649389, NRS22, MRSA / VISA, USA600, read-out: MIC) was 0.5 mg/L (≈ 1.05 µM) and the MIC ([2]; Staphylococcus aureus, MRSA / NRS 23 / VISA, S. aureus IHMA 649390, NRS23, MRSA / VISA, read-out: MIC) was 0.5 mg/L (≈ 1.05 µM). It also gave an MIC ([2]; Staphylococcus aureus, MRSA / NRS 24 / VISA, S. aureus IHMA 649391, NRS24, MRSA / VISA, read-out: MIC) of 0.25 mg/L (≈ 0.525 µM), an MIC ([2]; Staphylococcus aureus, MRSA / NRS 26, S. aureus IHMA 649392, NRS26, MRSA / VSSA, read-out: MIC) of 0.5 mg/L (≈ 1.05 µM) and an MIC ([2]; Staphylococcus aureus, MRSA / NRS 27 / VISA, S. aureus IHMA 1308248, NRS27, MRSA / VISA, read-out: MIC) of 0.5 mg/L (≈ 1.05 µM). For the same compound, the MIC ([2]; Staphylococcus aureus, MRSA / NRS 29 / VISA, S. aureus IHMA 1308250, NRS29, MRSA / VISA, read-out: MIC) was 0.25 mg/L (≈ 0.525 µM), the MIC ([2]; Staphylococcus aureus, MRSA / NRS 37 / VISA, S. aureus IHMA 1308251, NRS37, MRSA / VISA, read-out: MIC) was 0.5 mg/L (≈ 1.05 µM) and the MIC ([2]; Staphylococcus aureus, MRSA / NRS 54, S. aureus IHMA 1308253, NRS54, MRSA / VSSA* (*Expected VAN intermediate, confirmed VAN susceptible twice), test date 2018-11-07, read-out: MIC) was 0.12 mg/L (≈ 0.252 µM). It also gave an MIC ([2]; Staphylococcus aureus, MRSA / NRS 56 / VISA, S. aureus IHMA 1308254, NRS56, MRSA / VISA, read-out: MIC) of 0.25 mg/L (≈ 0.525 µM), an MIC ([2]; Staphylococcus aureus, MRSA / USA100 / VRSA, S. aureus IHMA 672230, VRS1, MRSA / VRSA, USA100, read-out: MIC) of 0.25 mg/L (≈ 0.525 µM) and an MIC ([2]; Staphylococcus aureus, MRSA / USA100 / VRSA, S. aureus IHMA 672231, VRS2, MRSA / VRSA, USA100, read-out: MIC) of 0.25 mg/L (≈ 0.525 µM). For the same compound, the MIC ([2]; Staphylococcus aureus, MRSA / USA100 / VRSA, S. aureus IHMA 672234, VRS4, MRSA / VRSA, USA100, read-out: MIC) was 0.25 mg/L (≈ 0.525 µM), the MIC ([2]; Staphylococcus aureus, MRSA / USA100 / VRSA, S. aureus IHMA 672235, VRS5, MRSA / VRSA, USA100, read-out: MIC) was 0.25 mg/L (≈ 0.525 µM) and the MIC ([2]; Staphylococcus aureus, MRSA / USA100 / VRSA, S. aureus IHMA 672237, VRS7, MRSA / VRSA, USA100, read-out: MIC) was 0.25 mg/L (≈ 0.525 µM). For the same compound, the MIC ([2]; Staphylococcus aureus, MRSA / USA100 / VRSA, S. aureus IHMA 672238, VRS8, MRSA / VRSA, USA100, read-out: MIC) was 0.25 mg/L (≈ 0.525 µM), the MIC ([2]; Staphylococcus aureus, MRSA / USA100 / VRSA, S. aureus IHMA 672239, VRS9, MRSA / VRSA, USA100, read-out: MIC) was 0.25 mg/L (≈ 0.525 µM) and the MIC ([2]; Staphylococcus aureus, MRSA / USA100 / VRSA, S. aureus IHMA 1308256, VRS10, MRSA / VRSA, USA100, read-out: MIC) was 0.5 mg/L (≈ 1.05 µM). The MIC ([2]; Staphylococcus aureus, MRSA / USA100 / VRSA, S. aureus IHMA 1308258, VRS11b, MRSA / VRSA, USA100, read-out: MIC) was 0.25 mg/L (≈ 0.525 µM), the MIC ([2]; Staphylococcus aureus, MRSA / USA800 / VRSA, S. aureus IHMA 672233, VRS3b, MRSA / VRSA, USA800, read-out: MIC) was 0.06 mg/L (≈ 0.126 µM) and the MIC ([2]; Staphylococcus aureus, MRSA / VISA / VRSA, all isolates of the panel (MRSA, VISA, VRSA), read-out: MIC against all tested S. aureus clinical isolates) was at most 1 mg/L. It also gave an MIC ([2]; Staphylococcus aureus, MRSA, S. aureus IHMA 1569509, MRSA / VSSA, read-out: MIC) of 0.12 mg/L (≈ 0.252 µM), an MIC ([2]; Staphylococcus aureus, MRSA, S. aureus IHMA 1575268, MRSA / VSSA, read-out: MIC) of 0.25 mg/L (≈ 0.525 µM) and an MIC ([2]; Staphylococcus aureus, MRSA, S. aureus IHMA 1575629, MRSA / VSSA, read-out: MIC) of 0.25 mg/L (≈ 0.525 µM). For the same compound, the MIC ([2]; Staphylococcus aureus, MRSA, S. aureus IHMA 1577820, MRSA / VSSA, read-out: MIC) was 0.5 mg/L (≈ 1.05 µM), the MIC ([2]; Staphylococcus aureus, MRSA, S. aureus IHMA 1580300, MRSA / VSSA, read-out: MIC) was 0.12 mg/L (≈ 0.252 µM) and the MIC ([2]; Staphylococcus aureus, MRSA, S. aureus IHMA 1580940, MRSA / VSSA, read-out: MIC) was 0.5 mg/L (≈ 1.05 µM). The MIC ([2]; Staphylococcus aureus, MRSA, S. aureus IHMA 1582100, MRSA / VSSA, read-out: MIC) was 0.25 mg/L (≈ 0.525 µM), the MIC ([2]; Staphylococcus aureus, MRSA, S. aureus IHMA 1583795, MRSA / VSSA, read-out: MIC) was 1 mg/L (≈ 2.1 µM) and the MIC ([2]; Staphylococcus aureus, MRSA, S. aureus IHMA 1584223, MRSA / VSSA, read-out: MIC) was 0.5 mg/L (≈ 1.05 µM). For the same compound, the MIC ([2]; Staphylococcus aureus, MRSA, S. aureus IHMA 1585316, MRSA / VSSA, read-out: MIC) was 0.25 mg/L (≈ 0.525 µM), the MIC ([2]; Staphylococcus aureus, MRSA, S. aureus IHMA 1586780, MRSA / VSSA, read-out: MIC) was 0.25 mg/L (≈ 0.525 µM) and the MIC ([2]; Staphylococcus aureus, MRSA, S. aureus IHMA 1587322, MRSA / VSSA, read-out: MIC) was 0.25 mg/L (≈ 0.525 µM). It also gave an MIC ([2]; Staphylococcus aureus, MRSA, S. aureus IHMA 1588127, MRSA / VSSA, read-out: MIC) of 0.25 mg/L (≈ 0.525 µM), an MIC ([2]; Staphylococcus aureus, MRSA, S. aureus IHMA 1591462, MRSA / VSSA, read-out: MIC) of 0.12 mg/L (≈ 0.252 µM) and an MIC ([2]; Staphylococcus aureus, MRSA, S. aureus IHMA 1592755, MRSA / VSSA, read-out: MIC) of 0.5 mg/L (≈ 1.05 µM). The MIC ([2]; Staphylococcus aureus, MRSA, S. aureus IHMA 1592776, MRSA / VSSA, read-out: MIC) was 0.25 mg/L (≈ 0.525 µM), the MIC ([2]; Staphylococcus aureus, MRSA, S. aureus IHMA 1597106, MRSA / VSSA, read-out: MIC) was 0.5 mg/L (≈ 1.05 µM) and the MIC ([2]; Staphylococcus aureus, MRSA, S. aureus IHMA 1602095, MRSA / VSSA, read-out: MIC) was 0.25 mg/L (≈ 0.525 µM). It also gave an MIC ([2]; Staphylococcus aureus, MRSA, S. aureus IHMA 1611170, MRSA / VSSA, read-out: MIC) of 0.25 mg/L (≈ 0.525 µM), an MIC ([2]; Staphylococcus aureus, MRSA, S. aureus IHMA 1611612, MRSA / VSSA, read-out: MIC) of 0.25 mg/L (≈ 0.525 µM) and an MIC ([2]; Staphylococcus aureus, MRSA, S. aureus IHMA 1612228, MRSA / VSSA, read-out: MIC) of 0.25 mg/L (≈ 0.525 µM). The MIC ([2]; Staphylococcus aureus, MRSA, S. aureus IHMA 1620441, MRSA / VSSA, read-out: MIC) was 0.25 mg/L (≈ 0.525 µM).
